# Laboratory results reported in US20230085307A1, “PYRIDAZINONE COMPOUND AND HERBICIDE” (NISSAN CHEMICAL CORPORATION, priority 2019, published 2023).
# How the values were obtained:
# barnyard grass [1] = experiment: Test Example 3: herbicidal effect by foliage application, Wagner pot (Table 18, symbol H); format: in vivo, barnyard grass (Echinochloa crus-galli)
# In short: (§1)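 Plants were sown in alluvial soil held under 0.1–0.5 cm standing water and grown 14 days in a greenhouse at 25–30 °C. An emulsifiable formulation, water-diluted to the set dose, was then sprayed onto the foliage, and effects were scored three weeks later using previously defined criteria.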
# Chinese sprangletop = experiment: Test Example 3: herbicidal effect by foliage application, Wagner pot (Table 18, symbol D); format: in vivo, chinese sprangletop (Leptochloa chinensis)
# In short: as §1
# rice flat sedge = experiment: Test Example 3: herbicidal effect by foliage application, Wagner pot (Table 18, symbol E); format: in vivo, rice flat sedge (Cyperus iria)
# In short: as §1
# southern crabgrass [2] = experiment: Test Example 4: herbicidal effect by soil treatment (Table 19, symbol F); format: in vivo, southern crabgrass (Digitaria ciliaris); conditions: amount of applied herbicide 320 g/ha
# In short: (§2)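 Three weeks of greenhouse growth at 25° C. to 30° C. followed a uniform surface spray of water-diluted emulsion at a predetermined herbicide amount. Seeds had been sown beforehand under about 1.5 cm of sterilized diluvial soil. Grading followed criteria set out in an earlier test.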
# green foxtail [3] = experiment: Test Example 4: herbicidal effect by soil treatment (Table 19, symbol G); format: in vivo, green foxtail (Setaria viridis); conditions: amount of applied herbicide 320 g/ha
# In short: as §2
# barnyard grass [4] = experiment: Test Example 4: herbicidal effect by soil treatment (Table 19, symbol H); format: in vivo, barnyard grass (Echinochloa crus-galli); conditions: amount of applied herbicide 320 g/ha
# In short: as §2
# wild oat [5] = experiment: Test Example 4: herbicidal effect by soil treatment (Table 19, symbol I); format: in vivo, wild oat (Avena fatua); conditions: amount of applied herbicide 320 g/ha
# In short: as §2
# blackgrass [6] = experiment: Test Example 4: herbicidal effect by soil treatment (Table 19, symbol J); format: in vivo, blackgrass (Alopecurus myosuroides); conditions: amount of applied herbicide 320 g/ha
# In short: as §2
# Italian ryegrass [7] = experiment: Test Example 4: herbicidal effect by soil treatment (Table 19, symbol K); format: in vivo, Italian ryegrass (Lolium multiflorum); conditions: amount of applied herbicide 320 g/ha
# In short: as §2
# windgrass [8] = experiment: Test Example 4: herbicidal effect by soil treatment (Table 19, symbol L); format: in vivo, windgrass (Apera spica-venti); conditions: amount of applied herbicide 320 g/ha
# In short: as §2
# velvetleaf [9] = experiment: Test Example 4: herbicidal effect by soil treatment (Table 19, symbol M); format: in vivo, velvetleaf (Abutilon theophrasti); conditions: amount of applied herbicide 320 g/ha
# In short: as §2
# redroot pigweed [10] = experiment: Test Example 4: herbicidal effect by soil treatment (Table 19, symbol N); format: in vivo, redroot pigweed (Amaranthus retroflexus); conditions: amount of applied herbicide 320 g/ha
# In short: as §2
# lambsquarters [11] = experiment: Test Example 4: herbicidal effect by soil treatment (Table 19, symbol O); format: in vivo, lambsquarters (Chenopodium album); conditions: amount of applied herbicide 320 g/ha
# In short: as §2
# chickweed [12] = experiment: Test Example 4: herbicidal effect by soil treatment (Table 19, symbol P); format: in vivo, common chickweed (Stellaria media); conditions: amount of applied herbicide 320 g/ha
# In short: as §2
# false cleavers [13] = experiment: Test Example 4: herbicidal effect by soil treatment (Table 19, symbol Q); format: in vivo, false cleavers (Galium spurium); conditions: amount of applied herbicide 320 g/ha
# In short: as §2
# persian speedwell [14] = experiment: Test Example 4: herbicidal effect by soil treatment (Table 19, symbol R); format: in vivo, Persian speedwell (Veronica persica); conditions: amount of applied herbicide 320 g/ha
# In short: as §2
# southern crabgrass [15] = experiment: Test Example 5: herbicidal effect by foliage application, plastic box (Table 20, symbol F); format: in vivo, southern crabgrass (Digitaria ciliaris); conditions: foliage application
# In short: (§3)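 Plants sown in sterilized diluvial soil and grown 14 days in a greenhouse at 25° C to 30° C, then sprayed on the foliage with the compound's emulsion diluted in water to a predetermined herbicide amount. Injury to weeds and crops scored three weeks after application on a visual rating scale.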
# green foxtail [16] = experiment: Test Example 5: herbicidal effect by foliage application, plastic box (Table 20, symbol G); format: in vivo, green foxtail (Setaria viridis); conditions: foliage application
# In short: as §3
# barnyard grass [17] = experiment: Test Example 5: herbicidal effect by foliage application, plastic box (Table 20, symbol H); format: in vivo, barnyard grass (Echinochloa crus-galli); conditions: foliage application
# In short: as §3
# wild oat [18] = experiment: Test Example 5: herbicidal effect by foliage application, plastic box (Table 20, symbol I); format: in vivo, wild oat (Avena fatua); conditions: foliage application
# In short: as §3
# blackgrass [19] = experiment: Test Example 5: herbicidal effect by foliage application, plastic box (Table 20, symbol J); format: in vivo, blackgrass (Alopecurus myosuroides); conditions: foliage application
# In short: as §3
# Italian ryegrass [20] = experiment: Test Example 5: herbicidal effect by foliage application, plastic box (Table 20, symbol K); format: in vivo, Italian ryegrass (Lolium multiflorum); conditions: foliage application
# In short: as §3
# windgrass [21] = experiment: Test Example 5: herbicidal effect by foliage application, plastic box (Table 20, symbol L); format: in vivo, windgrass (Apera spica-venti); conditions: foliage application
# In short: as §3
# velvetleaf [22] = experiment: Test Example 5: herbicidal effect by foliage application, plastic box (Table 20, symbol M); format: in vivo, velvetleaf (Abutilon theophrasti); conditions: foliage application
# In short: as §3
# redroot pigweed [23] = experiment: Test Example 5: herbicidal effect by foliage application, plastic box (Table 20, symbol N); format: in vivo, redroot pigweed (Amaranthus retroflexus); conditions: foliage application
# In short: as §3
# lambsquarters [24] = experiment: Test Example 5: herbicidal effect by foliage application, plastic box (Table 20, symbol O); format: in vivo, lambsquarters (Chenopodium album); conditions: foliage application
# In short: as §3
# chickweed [25] = experiment: Test Example 5: herbicidal effect by foliage application, plastic box (Table 20, symbol P); format: in vivo, common chickweed (Stellaria media); conditions: foliage application
# In short: as §3
# false cleavers [26] = experiment: Test Example 5: herbicidal effect by foliage application, plastic box (Table 20, symbol Q); format: in vivo, false cleavers (Galium spurium); conditions: foliage application
# In short: as §3
# persian speedwell [27] = experiment: Test Example 5: herbicidal effect by foliage application, plastic box (Table 20, symbol R); format: in vivo, Persian speedwell (Veronica persica); conditions: foliage application
# In short: as §3
# [28] = AAH 320 g/ha, three weeks after application
# [29] = amount of applied herbicide 320 g/ha
# [30] = 320 g/ha, evaluated three weeks after application
compound,measurement,setting,value
CCCC(=O)Oc1c(C)nn(C)c(=O)c1-c1c(-c2ccc3c(c2)OC(F)(F)O3)sc2ccccc12 [1-100],"herbicidal effect on H (barnyard grass), rating 0-5",barnyard grass [1]; 320 g/ha,0 (Herbicidal rate of 5% or less (almost no effect))
same,"herbicidal effect on D (Chinese sprangletop), rating 0-5",Chinese sprangletop; 320 g/ha,0 (Herbicidal rate of 5% or less (almost no effect))
same,"herbicidal effect on E (rice flat sedge), rating 0-5",rice flat sedge; 320 g/ha,4 (Herbicidal rate of 70% or more and less than 90%)
same,"herbicidal effect rating, F: southern crabgrass",southern crabgrass [2],0 (Herbicidal rate of 5% or less (almost no effect))
same,"herbicidal effect rating, G: green foxtail",green foxtail [3],0 (Herbicidal rate of 5% or less (almost no effect))
same,"herbicidal effect rating, H: barnyard grass",barnyard grass [4],0 (Herbicidal rate of 5% or less (almost no effect))
same,"herbicidal effect rating, I: wild oat",wild oat [5],0 (Herbicidal rate of 5% or less (almost no effect))
same,"herbicidal effect rating, J: blackgrass",blackgrass [6],0 (Herbicidal rate of 5% or less (almost no effect))
same,"herbicidal effect rating, K: Italian ryegrass",Italian ryegrass [7],3 (Herbicidal rate of 40% or more and less than 70%)
same,"herbicidal effect rating, L: windgrass",windgrass [8],0 (Herbicidal rate of 5% or less (almost no effect))
same,"herbicidal effect rating, M: velvetleaf",velvetleaf [9],0 (Herbicidal rate of 5% or less (almost no effect))
same,"herbicidal effect rating, N: redroot pigweed",redroot pigweed [10],0 (Herbicidal rate of 5% or less (almost no effect))
same,"herbicidal effect rating, O: lambsquarters",lambsquarters [11],0 (Herbicidal rate of 5% or less (almost no effect))
same,"herbicidal effect rating, P: chickweed",chickweed [12],2 (Herbicidal rate of 20% or more and less than 40%)
same,"herbicidal effect rating, Q: false cleavers",false cleavers [13],2 (Herbicidal rate of 20% or more and less than 40%)
same,"herbicidal effect rating, R: persian speedwell",persian speedwell [14],5 (Herbicidal rate of 90% or more (almost completely withered))
same,"F: southern crabgrass, herbicidal effect",southern crabgrass [15]; [28],0 (Herbicidal rate of 5% or less (almost no effect))
same,"G: green foxtail, herbicidal effect",green foxtail [16]; [28],0 (Herbicidal rate of 5% or less (almost no effect))
same,"H: barnyard grass, herbicidal effect",barnyard grass [17]; [28],0 (Herbicidal rate of 5% or less (almost no effect))
same,"I: wild oat, herbicidal effect",wild oat [18]; [28],1 (Herbicidal rate of 5% or more and less than 20%)
same,"J: blackgrass, herbicidal effect",blackgrass [19]; [28],0 (Herbicidal rate of 5% or less (almost no effect))
same,"K: Italian ryegrass, herbicidal effect",Italian ryegrass [20]; [28],1 (Herbicidal rate of 5% or more and less than 20%)
same,"L: windgrass, herbicidal effect",windgrass [21]; [28],0 (Herbicidal rate of 5% or less (almost no effect))
same,"M: velvetleaf, herbicidal effect",velvetleaf [22]; [28],3 (Herbicidal rate of 40% or more and less than 70%)
same,"N: redroot pigweed, herbicidal effect",redroot pigweed [23]; [28],0 (Herbicidal rate of 5% or less (almost no effect))
same,"O: lambsquarters, herbicidal effect",lambsquarters [24]; [28],0 (Herbicidal rate of 5% or less (almost no effect))
same,"P: chickweed, herbicidal effect",chickweed [25]; [28],5 (Herbicidal rate of 90% or more (almost completely withered))
same,"Q: false cleavers, herbicidal effect",false cleavers [26]; [28],3 (Herbicidal rate of 40% or more and less than 70%)
same,"R: persian speedwell, herbicidal effect",persian speedwell [27]; [28],5 (Herbicidal rate of 90% or more (almost completely withered))
CCCCOc1ccc(-c2sc3ccc(Cl)cc3c2-c2c(OC(=O)CCC)c(C)nn(C)c2=O)cc1 [2-110],herbicidal effect on H: barnyard grass,barnyard grass [1]; [29],4 (Herbicidal rate of 70% or more and less than 90%)
same,herbicidal effect on D: Chinese sprangletop,Chinese sprangletop; [29],4 (Herbicidal rate of 70% or more and less than 90%)
same,herbicidal effect on E: rice flat sedge,rice flat sedge; [29],4 (Herbicidal rate of 70% or more and less than 90%)
same,"F: southern crabgrass, herbicidal effect rating",southern crabgrass [2],0 (Herbicidal rate of 5% or less (almost no effect))
same,"G: green foxtail, herbicidal effect rating",green foxtail [3],0 (Herbicidal rate of 5% or less (almost no effect))
same,"H: barnyard grass, herbicidal effect rating",barnyard grass [4],0 (Herbicidal rate of 5% or less (almost no effect))
same,"I: wild oat, herbicidal effect rating",wild oat [5],0 (Herbicidal rate of 5% or less (almost no effect))
same,"J: blackgrass, herbicidal effect rating",blackgrass [6],0 (Herbicidal rate of 5% or less (almost no effect))
same,"K: Italian ryegrass, herbicidal effect rating",Italian ryegrass [7],0 (Herbicidal rate of 5% or less (almost no effect))
same,"L: windgrass, herbicidal effect rating",windgrass [8],0 (Herbicidal rate of 5% or less (almost no effect))
same,"M: velvetleaf, herbicidal effect rating",velvetleaf [9],0 (Herbicidal rate of 5% or less (almost no effect))
same,"N: redroot pigweed, herbicidal effect rating",redroot pigweed [10],0 (Herbicidal rate of 5% or less (almost no effect))
same,"O: lambsquarters, herbicidal effect rating",lambsquarters [11],0 (Herbicidal rate of 5% or less (almost no effect))
same,"P: chickweed, herbicidal effect rating",chickweed [12],0 (Herbicidal rate of 5% or less (almost no effect))
same,"Q: false cleavers, herbicidal effect rating",false cleavers [13],0 (Herbicidal rate of 5% or less (almost no effect))
same,"R: persian speedwell, herbicidal effect rating",persian speedwell [14],2 (Herbicidal rate of 20% or more and less than 40%)
same,herbicidal effect on F: southern crabgrass,southern crabgrass [15]; [30],0 (Herbicidal rate of 5% or less (almost no effect))
same,herbicidal effect on G: green foxtail,green foxtail [16]; [30],0 (Herbicidal rate of 5% or less (almost no effect))
same,herbicidal effect on H: barnyard grass,barnyard grass [17]; [30],0 (Herbicidal rate of 5% or less (almost no effect))
same,herbicidal effect on I: wild oat,wild oat [18]; [30],0 (Herbicidal rate of 5% or less (almost no effect))
same,herbicidal effect on J: blackgrass,blackgrass [19]; [30],0 (Herbicidal rate of 5% or less (almost no effect))
same,herbicidal effect on K: Italian ryegrass,Italian ryegrass [20]; [30],0 (Herbicidal rate of 5% or less (almost no effect))
same,herbicidal effect on L: windgrass,windgrass [21]; [30],0 (Herbicidal rate of 5% or less (almost no effect))
same,herbicidal effect on M: velvetleaf,velvetleaf [22]; [30],3 (Herbicidal rate of 40% or more and less than 70%)
same,herbicidal effect on N: redroot pigweed,redroot pigweed [23]; [30],4 (Herbicidal rate of 70% or more and less than 90%)
same,herbicidal effect on O: lambsquarters,lambsquarters [24]; [30],3 (Herbicidal rate of 40% or more and less than 70%)
same,herbicidal effect on P: chickweed,chickweed [25]; [30],2 (Herbicidal rate of 20% or more and less than 40%)
same,herbicidal effect on Q: false cleavers,false cleavers [26]; [30],3 (Herbicidal rate of 40% or more and less than 70%)
same,herbicidal effect on R: persian speedwell,persian speedwell [27]; [30],5 (Herbicidal rate of 90% or more (almost completely withered))
